# Patent US9708314B2, “Heterocyclic amide compound” (NISSAN CHEMICAL INDUSTRIES, LTD., priority 2013, dated 2017)
# How the values were obtained:
# Format in all cases: in vivo
# [1] = system: Echinochloa oryzacola Vasing.; assay: Test Example 2: herbicidal activity, application during weed generation in submerged conditions; details: Eighteenth Table; application herbicide amount 320 g/ha
# Outline: (§1)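 Scored three weeks post-application on a 0–5 scale (5: ≥90% herbicidal ratio, almost withered; 0: ≤5%). Plants raised from mixed-sown seed in submerged alluvial soil (4 cm water), 25–30 °C greenhouse; water-diluted emulsion applied onto water surface at one- to two-leaf stage, dose in g/ha.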
# Monochoria vaginalis = assay: as above; details: Eighteenth Table; application herbicide amount 320 g/ha
# Outline: as §1
# Scirpus juncoides = assay: as above; details: Eighteenth Table; application herbicide amount 320 g/ha
# Outline: as §1
# Abutilon theophrasti = assay: Test Example 4: herbicidal effect by application to foliage (diluvial soil, plastic box); details: for M (Abutilon theophrasti) herbicidal effect: application to foliage, application herbicide amount 320 g/ha; for M: Application herbicide amount 320 g/ha
# Outline: (§2)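 Seeds sown in sterilized diluvial soil, covered ~1.5 cm, grown 14 days in greenhouse at 25° C. to 30° C. Emulsion formulation diluted in water to set rate (g/ha) and sprayed onto stems and leaves. Effect scored visually 3 weeks later on 0–5 scale (5 = ≥90% herbicidal ratio, 0 = ≤5%).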
# Alopecurus myosuroides = assay: as above; details: for J (Alopecurus myosuroides) herbicidal effect: application to foliage, application herbicide amount 320 g/ha; for J: Application herbicide amount 320 g/ha
# Outline: as §2
# Apera spica-venti. = assay: as above; details: for L (Apera spica-venti.) herbicidal effect: application to foliage, application herbicide amount 320 g/ha; for L: Application herbicide amount 320 g/ha
# Outline: as §2
# Avena fatua = assay: as above; details: for I (Avena fatua) herbicidal effect: application to foliage, application herbicide amount 320 g/ha; for I: Application herbicide amount 320 g/ha
# Outline: as §2
# Chenopodium album = assay: as above; details: for O (Chenopodium album) herbicidal effect: application to foliage, application herbicide amount 320 g/ha; for O: Application herbicide amount 320 g/ha
# Outline: as §2
# Digitaria ciliaris = assay: as above; details: for F (Digitaria ciliaris) herbicidal effect: application to foliage, application herbicide amount 320 g/ha; for F: Application herbicide amount 320 g/ha
# Outline: as §2
# [2] = system: Echinochloa crus-galli var. crus-galli; assay: as above; details: for H (Echinochloa crus-galli var. crus-galli) herbicidal effect: application to foliage, application herbicide amount 320 g/ha; for H: Application herbicide amount 320 g/ha
# Outline: as §2
# Galium spurium = assay: as above; details: for Q (Galium spurium) herbicidal effect: application to foliage, application herbicide amount 320 g/ha; for Q: Application herbicide amount 320 g/ha
# Outline: as §2
# Lolium multiflorum Lam. = assay: as above; details: for K (Lolium multiflorum Lam.) herbicidal effect: application to foliage, application herbicide amount 320 g/ha; for K: Application herbicide amount 320 g/ha
# Outline: as §2
# Setaria viridis = assay: as above; details: for G (Setaria viridis) herbicidal effect: application to foliage, application herbicide amount 320 g/ha; for G: Application herbicide amount 320 g/ha
# Outline: as §2
# Veronica persica = assay: as above; details: for R (Veronica persica) herbicidal effect: application to foliage, application herbicide amount 320 g/ha; for R: Application herbicide amount 320 g/ha
# Outline: as §2
# [3] = system: Beta vulgaris ssp. vulgaris; assay: Test Example 4: effect on crop by application to foliage (diluvial soil, plastic box); details: for f (Beta vulgaris ssp. vulgaris) effect on crop: application to foliage, application herbicide amount 320 g/ha; for f: Application herbicide amount 320 g/ha, effect on crop
# Outline: as §2
# Brassica campestris L. = assay: as above; details: for g (Brassica campestris L.) effect on crop: application to foliage, application herbicide amount 320 g/ha; for g: Application herbicide amount 320 g/ha, effect on crop
# Outline: as §2
# Glycine max = assay: as above; details: for c (Glycine max) effect on crop: application to foliage, application herbicide amount 320 g/ha; for c: Application herbicide amount 320 g/ha, effect on crop
# Outline: as §2
# Triticum aestivum = assay: as above; details: for e (Triticum aestivum) effect on crop: application to foliage, application herbicide amount 320 g/ha; for e: Application herbicide amount 320 g/ha, effect on crop
# Outline: as §2
# Zea mays = assay: as above; details: for b (Zea mays) effect on crop: application to foliage, application herbicide amount 320 g/ha; for b: Application herbicide amount 320 g/ha, effect on crop
# Outline: as §2
# [4] = system: directly sowed Oryza sativa; assay: as above; details: for d (directly sowed Oryza sativa) effect on crop: application to foliage, application herbicide amount 320 g/ha; for d: Application herbicide amount 320 g/ha, effect on crop
# Outline: as §2
SMILES,A (Echinochloa oryzicola Vasing.) herbicidal ratio grade [1],C (Monochoria vaginalis) herbicidal ratio grade (Monochoria vaginalis),B (Scirpus juncoides) herbicidal ratio grade (Scirpus juncoides),M (Abutilon theophrasti) herbicidal effect (Abutilon theophrasti),J (Alopecurus myosuroides) herbicidal effect (Alopecurus myosuroides),L (Apera spica-venti.) herbicidal effect (Apera spica-venti.),I (Avena fatua) herbicidal effect (Avena fatua),O (Chenopodium album) herbicidal effect (Chenopodium album),F (Digitaria ciliaris) herbicidal effect (Digitaria ciliaris),H (Echinochloa crus-galli var. crus-galli) herbicidal effect [2],Q (Galium spurium) herbicidal effect (Galium spurium),K (Lolium multiflorum Lam.) herbicidal effect (Lolium multiflorum Lam.),G (Setaria viridis) herbicidal effect (Setaria viridis),R (Veronica persica) herbicidal effect (Veronica persica),f (Beta vulgaris ssp. vulgaris) effect on crop [3],g (Brassica campestris L.) effect on crop (Brassica campestris L.),c (Glycine max) effect on crop (Glycine max),e (Triticum aestivum) effect on crop (Triticum aestivum),b (Zea mays) effect on crop (Zea mays),d (directly sowed Oryza sativa) effect on crop [4],other results
CSCc1nnc2c(C(=O)Nc3nnc(C)o3)ccc(C(F)(F)F)n12 [1-030],4 (Herbicidal ratio of 70% or more and less than 90%),3 (Herbicidal ratio of 40% or more and less than 70%),3 (Herbicidal ratio of 40% or more and less than 70%),5 (Herbicidal ratio of 90% or more (almost completely withered)),3 (Herbicidal ratio of 40% or more and less than 70%),4 (Herbicidal ratio of 70% or more and less than 90%),4 (Herbicidal ratio of 70% or more and less than 90%),5 (Herbicidal ratio of 90% or more (almost completely withered)),5 (Herbicidal ratio of 90% or more (almost completely withered)),5 (Herbicidal ratio of 90% or more (almost completely withered)),4 (Herbicidal ratio of 70% or more and less than 90%),3 (Herbicidal ratio of 40% or more and less than 70%),5 (Herbicidal ratio of 90% or more (almost completely withered)),4 (Herbicidal ratio of 70% or more and less than 90%),5 (Herbicidal ratio of 90% or more (almost completely withered)),4 (Herbicidal ratio of 70% or more and less than 90%),2 (Herbicidal ratio of 20% or more and less than 40%),3 (Herbicidal ratio of 40% or more and less than 70%),3 (Herbicidal ratio of 40% or more and less than 70%),5 (Herbicidal ratio of 90% or more (almost completely withered)),–
Cc1nnc(NC(=O)c2ccc(C(F)(F)F)n3c(CC[S+](C)[O-])nnc23)o1 (centres unmarked) [1-084],2 (Herbicidal ratio of 20% or more and less than 40%),0 (Herbicidal ratio of 5% or less (almost no effect)),1 (Herbicidal ratio of 5% or more and less than 20%),–,–,–,–,–,–,–,–,–,–,–,–,–,–,–,–,–,M (Abutilon theophrasti): 5 (Herbicidal ratio of 90% or more (almost completely withered)); J (Alopecurus myosuroides): 0 (Herbicidal ratio of 5% or less (almost no effect)); L (Apera spica-venti.): 0 (Herbicidal ratio of 5% or less (almost no effect)); I (Avena fatua): 3 (Herbicidal ratio of 40% or more and less than 70%); O (Chenopodium album): 5 (Herbicidal ratio of 90% or more (almost completely withered)); F (Digitaria ciliaris): 5 (Herbicidal ratio of 90% or more (almost completely withered)); H [2]: 5 (Herbicidal ratio of 90% or more (almost completely withered)); Q (Galium spurium): 4 (Herbicidal ratio of 70% or more and less than 90%); K (Lolium multiflorum Lam.): 0 (Herbicidal ratio of 5% or less (almost no effect)); G (Setaria viridis): 5 (Herbicidal ratio of 90% or more (almost completely withered)); R (Veronica persica): 5 (Herbicidal ratio of 90% or more (almost completely withered)); f [3]: 4 (Herbicidal ratio of 70% or more and less than 90%); g (Brassica campestris L.): 4 (Herbicidal ratio of 70% or more and less than 90%); c (Glycine max): 1 (Herbicidal ratio of 5% or more and less than 20%); e (Triticum aestivum): 0 (Herbicidal ratio of 5% or less (almost no effect)); b (Zea mays): 3 (Herbicidal ratio of 40% or more and less than 70%); d [4]: 4 (Herbicidal ratio of 70% or more and less than 90%)
CCC[S+]([O-])c1nnc2c(C(=O)Nc3nnc(C)o3)ccc(C(F)(F)F)n12 (centres unmarked) [1-092],4 (Herbicidal ratio of 70% or more and less than 90%),3 (Herbicidal ratio of 40% or more and less than 70%),4 (Herbicidal ratio of 70% or more and less than 90%),–,–,–,–,–,–,–,–,–,–,–,–,–,–,–,–,–,M (Abutilon theophrasti): 4 (Herbicidal ratio of 70% or more and less than 90%); J (Alopecurus myosuroides): 1 (Herbicidal ratio of 5% or more and less than 20%); L (Apera spica-venti.): 1 (Herbicidal ratio of 5% or more and less than 20%); I (Avena fatua): 2 (Herbicidal ratio of 20% or more and less than 40%); O (Chenopodium album): 5 (Herbicidal ratio of 90% or more (almost completely withered)); F (Digitaria ciliaris): 5 (Herbicidal ratio of 90% or more (almost completely withered)); H [2]: 5 (Herbicidal ratio of 90% or more (almost completely withered)); Q (Galium spurium): 3 (Herbicidal ratio of 40% or more and less than 70%); K (Lolium multiflorum Lam.): 1 (Herbicidal ratio of 5% or more and less than 20%); G (Setaria viridis): 5 (Herbicidal ratio of 90% or more (almost completely withered)); R (Veronica persica): 5 (Herbicidal ratio of 90% or more (almost completely withered)); f [3]: 5 (Herbicidal ratio of 90% or more (almost completely withered)); g (Brassica campestris L.): 3 (Herbicidal ratio of 40% or more and less than 70%); c (Glycine max): 1 (Herbicidal ratio of 5% or more and less than 20%); e (Triticum aestivum): 0 (Herbicidal ratio of 5% or less (almost no effect)); b (Zea mays): 5 (Herbicidal ratio of 90% or more (almost completely withered)); d [4]: 4 (Herbicidal ratio of 70% or more and less than 90%)
Cc1nnc(NC(=O)c2ccc(C(F)(F)F)n3c(C4CC4)nnc23)o1 [1-010],4 (Herbicidal ratio of 70% or more and less than 90%),4 (Herbicidal ratio of 70% or more and less than 90%),1 (Herbicidal ratio of 5% or more and less than 20%),5 (Herbicidal ratio of 90% or more (almost completely withered)),2 (Herbicidal ratio of 20% or more and less than 40%),2 (Herbicidal ratio of 20% or more and less than 40%),3 (Herbicidal ratio of 40% or more and less than 70%),5 (Herbicidal ratio of 90% or more (almost completely withered)),3 (Herbicidal ratio of 40% or more and less than 70%),4 (Herbicidal ratio of 70% or more and less than 90%),1 (Herbicidal ratio of 5% or more and less than 20%),1 (Herbicidal ratio of 5% or more and less than 20%),3 (Herbicidal ratio of 40% or more and less than 70%),5 (Herbicidal ratio of 90% or more (almost completely withered)),5 (Herbicidal ratio of 90% or more (almost completely withered)),3 (Herbicidal ratio of 40% or more and less than 70%),1 (Herbicidal ratio of 5% or more and less than 20%),1 (Herbicidal ratio of 5% or more and less than 20%),0 (Herbicidal ratio of 5% or less (almost no effect)),4 (Herbicidal ratio of 70% or more and less than 90%),–
